Test results as given in patent US7628987B2, “Vectors derived from antibodies for transferring substances into cells” (Institut Pasteur, priority 1997, dated 2009).
No end group written: not given here.

Tests used:
PtK2 fibroblasts = assay: Study of the penetration of biotinylated polypeptides into cells (peroxidase coloration); type: cell-based; conditions: after 1 hour of culture, biotinylated polypeptide 5-20 μg/ml
Description: Cultured PtK2 fibroblasts seeded the day before in an amount of 5×10^4 cells per well onto glass sheets, are incubated at 37° C., 1-18 hours in complete RPMI 1640 culture medium (or DMEM) (10% foetal calf serum, 2 mM L-glutamine and 1 mM of sodium pyruvate) containing a biotinylated polypeptide of the invention (5-20 μg/ml) The cells were then washed with PBS and fixed with 2% of p-formaldehyde at 4° C. for 10 minutes then washed with PBS. The cells were then incubated with a solution of streptavidin conjugated with 5 μg/ml of peroxidase in PBS for 30 minutes, then washed with PBS and incubated in the peroxidase cytochemical substrate (diaminobenzidine+H2O2). After washing, the cells were examined microscopically.

PV1/Mahoney = type: cell-based, polio virus type 1; conditions: peptide 25 μg/ml, day 5
PV1/Sabin = type: cell-based, polio virus type 1; conditions: PV1/Sabin, peptide 25 μg/ml, day 5
HSV-1 TK^+ virus = assay: microbe, parasite or virus in culture; type: cell-based, Herpes Virus Simplex type I; conditions: for CPE inhibition (AI): HSV1 TK^+
HSV-1 TK^− virus = assay: microbe, parasite or virus in culture; type: cell-based, Herpes Virus Simplex type I; conditions: for CPE inhibition (AI): HSV1 TK^−
cells in culture = assay: Cell penetration of polypeptide-streptavidin vectors coupled to enzymes; conditions: 2 hours of culture, complete culture medium

Substance: VAYISRGGVSTYYSDTVKGRFTRQKYNKRA [pF4.1]
- penetration into cells (peroxidase coloration) (PtK2 fibroblasts): penetrated massively and rapidly into the cells

Substance: (K)19-VAYISRGGGIFYYQDSIKGRFTREKYGKRGMDY (KKKKKKKKKKKKKKKKKKKVAYISRGGGIFYYQDSIKGRFTREKYGKRGMDY) [K19pJ20-8]
- LOG (TITER/ML) (PV1/Mahoney): 8.9
- TITER REDUCTION FACTOR (PV1/Mahoney): 6
- LOG (TITER/ML) (PV1/Sabin): 8.6
- TITER REDUCTION FACTOR (PV1/Sabin): 8
- CPE inhibition (AI) (HSV-1 TK^+ virus; added H0, 5 μ/well): 37
- CPE inhibition (AI) (HSV-1 TK^+ virus; added H0, 10 μ/well): 71
- CPE inhibition (AI) (HSV-1 TK^+ virus; added H0, 20 μ/well): 86
- CPE inhibition (AI) (HSV-1 TK^+ virus; added H + 1, 5 μ/well): 0
- CPE inhibition (AI) (HSV-1 TK^+ virus; added H + 1, 10 μ/well): 1
- CPE inhibition (AI) (HSV-1 TK^+ virus; added H + 1, 20 μ/well): 0
- CPE inhibition (AI) (HSV-1 TK^+ virus; added H − 1, 5 μ/well): 27
- CPE inhibition (AI) (HSV-1 TK^+ virus; added H − 1, 10 μ/well): 74
- CPE inhibition (AI) (HSV-1 TK^+ virus; added H − 1, 20 μ/well): 89
- CPE inhibition (AI) (HSV-1 TK^+ virus; added H − 2, 5 μ/well): 1
- CPE inhibition (AI) (HSV-1 TK^+ virus; added H − 2, 10 μ/well): 44
- CPE inhibition (AI) (HSV-1 TK^+ virus; added H − 2, 20 μ/well): 78
- inhibition of the CPE effect, in words (HSV-1 TK^+ virus; HSV-1 TK^+): very active against the two viral strains
- CPE inhibition (AI) (HSV-1 TK^− virus; added H0, 5 μ/well): 38
- CPE inhibition (AI) (HSV-1 TK^− virus; added H0, 10 μ/well): 56
- CPE inhibition (AI) (HSV-1 TK^− virus; added H0, 20 μ/well): 86
- CPE inhibition (AI) (HSV-1 TK^− virus; added H + 1, 5 μ/well): 1
- CPE inhibition (AI) (HSV-1 TK^− virus; added H + 1, 10 μ/well): 3
- CPE inhibition (AI) (HSV-1 TK^− virus; added H + 1, 20 μ/well): 11
- CPE inhibition (AI) (HSV-1 TK^− virus; added H − 1, 5 μ/well): 29
- CPE inhibition (AI) (HSV-1 TK^− virus; added H − 1, 10 μ/well): 49
- CPE inhibition (AI) (HSV-1 TK^− virus; added H − 1, 20 μ/well): 100
- CPE inhibition (AI) (HSV-1 TK^− virus; added H − 2, 5 μ/well): 55
- CPE inhibition (AI) (HSV-1 TK^− virus; added H − 2, 10 μ/well): 46
- CPE inhibition (AI) (HSV-1 TK^− virus; added H − 2, 20 μ/well): 0
- inhibition of the CPE effect, in words (HSV-1 TK^− virus; HSV-1 TK^−): very active against the two viral strains

Substance: streptavidin: control protein in native form
- intracellular detection of the coupled enzymes (cells in culture): no intracellular coloration was observed
